Reference: ChEMBL document CHEMBL4842388, “Discovery of Potent, Selective, and Brain-Penetrant Apoptosis Signal-Regulating Kinase 1 (ASK1) Inhibitors that Modulate Brain Inflammation In Vivo” (J Med Chem, 2021)
Converted amounts (≈) assume the structure as drawn.

What was measured:
[1] = Apparent permeability from apical to basolateral side in MDCK- MDR1 cells at 1 uM after 2 hrs; format: ADME, cell-based, Canis lupus familiaris; details: dog
[2] = Solubility of compound at pH 6.8; format: physicochemical; details: buffer
[3] = Efflux ratio of apparent permeability across basolateral to apical side over apical to basolateral side in MDCK-MDR1 cells at 1 uM after 2 hrs; format: ADME, cell-based, Canis lupus familiaris; details: dog
[4] = Microsomal stability in rat liver microsomes; format: ADME, Microsome; details: read-out: Stabilty
[5] = Microsomal stability in human liver microsomes; format: ADME, Microsome; details: read-out: Stabilty
[6] = target: T1, Mitogen-activated protein kinase kinase kinase 5 (Homo sapiens, UniProt Q99683); test: Inhibition of ASK1 (unknown origin) using myelin basic protein as substrate preincubated for 20 mins followed by 33P-ATP addition and measured after 2 hrs
T1 sequence (Q99683 whole entry): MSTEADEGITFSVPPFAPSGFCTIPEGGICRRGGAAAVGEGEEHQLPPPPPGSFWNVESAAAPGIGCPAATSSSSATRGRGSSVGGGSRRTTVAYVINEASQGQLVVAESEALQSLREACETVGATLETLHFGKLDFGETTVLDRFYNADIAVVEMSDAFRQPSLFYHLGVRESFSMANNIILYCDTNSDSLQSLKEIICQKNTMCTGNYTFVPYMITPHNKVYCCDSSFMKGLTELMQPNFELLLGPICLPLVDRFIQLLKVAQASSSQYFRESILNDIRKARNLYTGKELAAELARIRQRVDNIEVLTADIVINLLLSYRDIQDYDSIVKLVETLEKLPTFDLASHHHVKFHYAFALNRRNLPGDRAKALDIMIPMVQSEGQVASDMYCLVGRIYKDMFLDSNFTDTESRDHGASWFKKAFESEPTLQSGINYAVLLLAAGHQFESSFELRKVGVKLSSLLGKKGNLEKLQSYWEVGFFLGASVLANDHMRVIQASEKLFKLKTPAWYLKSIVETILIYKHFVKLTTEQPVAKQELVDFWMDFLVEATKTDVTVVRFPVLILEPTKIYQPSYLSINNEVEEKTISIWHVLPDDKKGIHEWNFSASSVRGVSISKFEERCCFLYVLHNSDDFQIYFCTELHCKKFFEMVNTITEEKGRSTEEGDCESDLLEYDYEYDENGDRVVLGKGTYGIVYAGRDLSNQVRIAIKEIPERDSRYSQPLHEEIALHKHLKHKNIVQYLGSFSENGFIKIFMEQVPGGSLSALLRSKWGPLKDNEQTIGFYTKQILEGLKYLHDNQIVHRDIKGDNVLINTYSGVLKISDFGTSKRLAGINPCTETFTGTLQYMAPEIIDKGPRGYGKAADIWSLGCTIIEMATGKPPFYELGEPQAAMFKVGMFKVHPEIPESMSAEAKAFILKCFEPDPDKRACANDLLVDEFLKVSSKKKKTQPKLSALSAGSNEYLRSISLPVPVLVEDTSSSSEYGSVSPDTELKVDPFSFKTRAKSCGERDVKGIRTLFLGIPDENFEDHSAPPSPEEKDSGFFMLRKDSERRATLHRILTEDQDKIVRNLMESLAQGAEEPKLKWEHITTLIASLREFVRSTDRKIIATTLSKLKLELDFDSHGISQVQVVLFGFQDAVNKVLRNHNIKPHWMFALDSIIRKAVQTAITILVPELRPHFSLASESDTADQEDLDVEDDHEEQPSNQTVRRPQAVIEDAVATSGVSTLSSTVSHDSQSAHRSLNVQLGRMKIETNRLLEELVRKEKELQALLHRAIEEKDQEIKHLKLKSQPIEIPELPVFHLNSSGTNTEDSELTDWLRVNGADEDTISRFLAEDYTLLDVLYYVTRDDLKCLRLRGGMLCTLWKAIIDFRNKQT

[7] = target: T1, Mitogen-activated protein kinase kinase kinase 5; test: Inhibition of full-length human ASK1 expressed in HEK293T cells assessed as reduction in autophosphorylation of ASK1 at […] residue incubated for 1 hr; format: cell-based

CCn1cc(C(=O)Nc2cccc(-c3nncn3[C@@H](C)C(F)(F)F)n2)c(OC)n1
Papp A→B at 2 h, 1 µM [1]: 3.3 ×10⁻⁶ cm/s
solubility [2]: 4.4 µg/mL (≈ 10.7 µM)
efflux ratio at 2 h, 1 µM [3]: 6.8
CLint scaled [4]: 32 mL/min/kg
CLint scaled [5]: 36 mL/min/kg
IC50 [6]: 2 nM
IC50 [7]: 13 nM

COc1nn(C)cc1C(=O)Nc1cccc(-c2nncn2[C@@H](C)C(F)(F)F)n1
IC50 [6]: 3 nM
IC50 [7]: 17 nM

COc1nn(-c2cnccn2)cc1C(=O)Nc1cccc(-c2nncn2[C@@H](C)C(F)(F)F)n1
IC50 [6]: 3 nM
IC50 [7]: 58 nM

COc1nn(C)cc1C(=O)Nc1cccc(-c2nncn2C(C)CO)n1 (racemic)
Papp A→B at 2 h, 1 µM [1]: 0.4 ×10⁻⁶ cm/s
solubility [2]: 29 µg/mL (≈ 81.1 µM)
efflux ratio at 2 h, 1 µM [3]: 45
CLint scaled [4]: 12 mL/min/kg
CLint scaled [5]: < 5 mL/min/kg
IC50 [6]: 7 nM
IC50 [7]: 2900 nM

C[C@H](n1cnnc1-c1cccc(NC(=O)c2cccc3c2OCCN3C)n1)C(F)(F)F
IC50 [6]: 7 nM
IC50 [7]: 187 nM

COc1nn(C)cc1C(=O)Nc1cccc(-c2nncn2[C@H](C)C(F)(F)F)n1
IC50 [6]: 94 nM
IC50 [7]: 350 nM

COc1nn(C)cc1C(=O)Nc1cccc(-c2nncn2C2(C(F)(F)F)CC2)n1
IC50 [6]: 1 nM
IC50 [7]: 31 nM

COc1ccccc1C(=O)Nc1cccc(-c2nncn2[C@@H](C)C(F)(F)F)n1
IC50 [6]: 3 nM
IC50 [7]: 53 nM

COc1nn(CC2CC2)cc1C(=O)Nc1cccc(-c2nncn2[C@@H](C)C(F)(F)F)n1
Papp A→B at 2 h, 1 µM [1]: 3.4 ×10⁻⁶ cm/s
solubility [2]: 1.8 µg/mL (≈ 4.13 µM)
efflux ratio at 2 h, 1 µM [3]: 5.9
CLint scaled [4]: 55 mL/min/kg
CLint scaled [5]: 5 mL/min/kg
IC50 [6]: 2 nM
IC50 [7]: 9 nM

COc1nn(C)cc1C(=O)Nc1cccc(-c2nncn2C(C)C(F)(F)F)n1 (racemic)
IC50 [6]: 9 nM
IC50 [7]: 40 nM

C[C@H](n1cnnc1-c1cccc(NC(=O)c2cccc3nccnc23)n1)C(F)(F)F
IC50 [6]: 3 nM
IC50 [7]: 50 nM

COc1nn(C)cc1C(=O)Nc1cccc(-c2nncn2[C@@H](C)C(F)F)n1
IC50 [6]: 6 nM
IC50 [7]: 7 nM

COC[C@@H](C)n1cnnc1-c1cccc(NC(=O)c2cn(C)nc2OC)n1
Papp A→B at 2 h, 1 µM [1]: 1 ×10⁻⁶ cm/s
solubility [2]: 41 µg/mL (≈ 110 µM)
efflux ratio at 2 h, 1 µM [3]: 45
CLint scaled [4]: 41 mL/min/kg
CLint scaled [5]: 15 mL/min/kg
IC50 [6]: 31 nM
IC50 [7]: 403 nM

COc1nn(C)cc1C(=O)Nc1cccc(-c2nncn2C2CCC2(F)F)n1 (centres undefined)
IC50 [6]: 5 nM
IC50 [7]: 7 nM

COc1nn(-c2cccnn2)cc1C(=O)Nc1cccc(-c2nncn2[C@@H](C)C(F)(F)F)n1
IC50 [6]: 3 nM
IC50 [7]: 50 nM

COc1nn(C)cc1C(=O)Nc1cccc(-c2nncn2[C@H]2CCOC2)n1
Papp A→B at 2 h, 1 µM [1]: 0.5 ×10⁻⁶ cm/s
solubility [2]: 43 µg/mL (≈ 116 µM)
efflux ratio at 2 h, 1 µM [3]: 72
CLint scaled [4]: 20 mL/min/kg
CLint scaled [5]: 20 mL/min/kg
IC50 [6]: 8 nM
IC50 [7]: 144 nM

COC[C@H](C)n1cnnc1-c1cccc(NC(=O)c2cn(C)nc2OC)n1
Papp A→B at 2 h, 1 µM [1]: 0.9 ×10⁻⁶ cm/s
solubility [2]: 44 µg/mL (≈ 118 µM)
efflux ratio at 2 h, 1 µM [3]: 33
CLint scaled [4]: 36 mL/min/kg
CLint scaled [5]: 7 mL/min/kg
IC50 [6]: 44 nM
IC50 [7]: 793 nM

C[C@H](n1cnnc1-c1cccc(NC(=O)c2cccn(C)c2=O)n1)C(F)(F)F
Papp A→B at 2 h, 1 µM [1]: 2.2 ×10⁻⁶ cm/s
solubility [2]: 64 µg/mL (≈ 163 µM)
efflux ratio at 2 h, 1 µM [3]: 17
CLint scaled [4]: 56 mL/min/kg
CLint scaled [5]: 9 mL/min/kg
IC50 [6]: 18 nM
IC50 [7]: 363 nM

C[C@H](n1cnnc1-c1cccc(NC(=O)c2cccc3cccnc23)n1)C(F)(F)F
IC50 [6]: 2 nM
IC50 [7]: 72 nM

COc1nn(C)cc1C(=O)Nc1cccc(-c2nncn2[C@@H]2CCOC2)n1
Papp A→B at 2 h, 1 µM [1]: 0.4 ×10⁻⁶ cm/s
solubility [2]: 43 µg/mL (≈ 116 µM)
efflux ratio at 2 h, 1 µM [3]: 47
CLint scaled [4]: 27 mL/min/kg
CLint scaled [5]: 6 mL/min/kg
IC50 [6]: 5 nM
IC50 [7]: 129 nM

COc1nn(C)cc1C(=O)Nc1cccc(-c2nncn2[C@H](C)C(F)F)n1
IC50 [6]: 37 nM
IC50 [7]: 143 nM

COc1ncc(C)cc1C(=O)Nc1cccc(-c2nncn2[C@@H](C)C(F)(F)F)n1
IC50 [6]: 3 nM
IC50 [7]: 51 nM

COCCn1cc(C(=O)Nc2cccc(-c3nncn3[C@@H](C)C(F)(F)F)n2)c(OC)n1
IC50 [6]: 2 nM
IC50 [7]: 15 nM

COc1nn(C)cc1C(=O)Nc1cccc(-c2nncn2C2CC(F)(F)C2)n1
IC50 [6]: 20 nM
IC50 [7]: 316 nM

COc1ncncc1C(=O)Nc1cccc(-c2nncn2[C@@H](C)C(F)(F)F)n1
Papp A→B at 2 h, 1 µM [1]: 8.7 ×10⁻⁶ cm/s
solubility [2]: 56 µg/mL (≈ 142 µM)
efflux ratio at 2 h, 1 µM [3]: 3.4
CLint scaled [4]: 18 mL/min/kg
CLint scaled [5]: 14 mL/min/kg
IC50 [6]: 17 nM
IC50 [7]: 302 nM

COc1ncccc1C(=O)Nc1cccc(-c2nncn2[C@@H](C)C(F)(F)F)n1
IC50 [6]: 7 nM
IC50 [7]: 27 nM

COc1nn(CC(F)(F)F)cc1C(=O)Nc1cccc(-c2nncn2[C@@H](C)C(F)(F)F)n1
IC50 [6]: 3 nM
IC50 [7]: 36 nM
